Measured values as given in patent US20180161461A1, “Rare Earth Oxide Particles and Use Thereof in Particular In Imaging” (Ecole Polytechnique, priority 2012, published 2018).

Assays:
[1] = proton resonance frequency 20 MHz, available temperature closest to 37° C.; cited from earlier work
[2] = logarithmic dissociation constant for the Gd-ligand complexes (GdL); cited from earlier work
[3] = Measurement of relaxation time / relaxivity, Bruker minispec relaxometer; type: physicochemical; conditions: relaxivity per Gd ion, 20 MHz, 37° C., ultrapure water
Procedure: The relaxation times relating to the particles obtained were measured on a Bruker minispec NMS 120 relaxometer (Bruker, Rheinstetten, Germany) operating at a proton resonance frequency of ω/2π=20 MHz and a temperature of 37° C. In order to avoid any confusion between angular frequency ω and the frequency v, here, all of the frequencies given in Hz correspond to ω/2π=v. The spectrometer was calibrated using standard water/oil mixtures with known component ratios, in accordance with the manufacturer's instructions. The pre-diluted samples were further diluted directly in 10 mm NMR (nuclear magnetic resonance) tubes using a series containing 10×1 mL samples. All of the dilutions were made using ultrapure water. The tubes were sealed and placed in a water bath at 37° C. for at least 10 minutes before measurement, The relaxation times T1 were determined by using the inversion-recovery pulse sequence with a repetition time TR=5 s. […] In general, 100 echoes with an echo time TE between 0.5 and 2 ms depending on the concentration of the sample were recorded. […]
The relaxivities per particle were determined by firstly calculating the volume of a particle. To this end, the nanoparticles were assumed to be homogeneous in dimension and spherical with a diameter equal to the number average diameter determined by DLS (dynamic light scattering). […]

**Q.** What does the source list for `COCCNC(=O)CN(CCN(CCN(CC(=O)[O-])CC(=O)NCCOC)CC(=O)[O-])CC(=O)[O-].[Gd+3]` [OptiMark]?
**A.** r1 [1]: 4.7 mM⁻¹ s⁻¹; pKGdL [2]: 16.8

**Q.** With `O=C([O-])CN(CCN(CC(=O)[O-])CC(COP(=O)([O-])OC1CCC(c2ccccc2)(c2ccccc2)CC1)N(CC(=O)[O-])CC(=O)[O-])CC(=O)[O-].[Gd+3].[Na+].[Na+].[Na+]` (stereo not drawn) [Ablavar] as the molecule, how does the pKGdL [2] read?
**A.** 6.6

**Q.** Which r1 [1] does the source give for `CNC(=O)CN(CCN(CCN(CC(=O)[O-])CC(=O)NC)CC(=O)[O-])CC(=O)[O-].[Gd+3]` [Omniscan] here?
**A.** 3.96 mM⁻¹ s⁻¹

**Q.** What about the pKGdL [2] of the same molecule?
**A.** 16.9

**Q.** With `O=C([O-])CN1CCN(CC(=O)[O-])CCN([C@H](CO)[C@H](O)CO)CCN(CC(=O)[O-])CC1.[Gd+3]` (racemic) [Gadovist] as the molecule, how does the r1 [1] read?
**A.** 4.8 mM⁻¹ s⁻¹

**Q.** What about the pKGdL [2] of the same molecule?
**A.** 21.1

**Q.** With `[Cl][Gd]([Cl])[Cl]` [GdCl3] as the molecule, how does the “r1^ion” value [3] read?
**A.** 10.4 mM⁻¹ s⁻¹

**Q.** Which results are given for `CNC[C@H](O)[C@@H](O)[C@H](O)[C@H](O)CO.CNC[C@H](O)[C@@H](O)[C@H](O)[C@H](O)CO.O=C([O-])CN(CCN(CC(=O)[O-])CC(=O)O)CCN(CC(=O)O)C(COCc1ccccc1)C(=O)[O-].[Gd+3]` (stereo not drawn) [MultiHance]?
**A.** r1 [1]: 4.39 mM⁻¹ s⁻¹; pKGdL [2]: 22.6

**Q.** For `CCOc1ccc(CC(CN(CCN(CC(=O)[O-])CC(=O)[O-])CC(=O)[O-])N(CC(=O)[O-])CC(=O)[O-])cc1.[Gd+3].[Na+].[Na+]` (stereo not drawn) [Eovist], which r1 [1] is on record?
**A.** 5.4 mM⁻¹ s⁻¹

**Q.** For `CC(O)CN1CCN(CC(=O)[O-])CCN(CC(=O)[O-])CCN(CC(=O)[O-])CC1.[Gd+3]` (stereo not drawn) [Prohance], which r1 [1] is on record?
**A.** 3.7 mM⁻¹ s⁻¹

**Q.** What about the pKGdL [2] of the same molecule?
**A.** 23.8

**Q.** For `CNC[C@H](O)[C@@H](O)[C@H](O)[C@H](O)CO.CNC[C@H](O)[C@@H](O)[C@H](O)[C@H](O)CO.O=C([O-])CN(CCN(CC(=O)[O-])CC(=O)O)CCN(CC(=O)[O-])CC(=O)O.[Gd+3]` [Magnevist], which r1 [1] is on record?
**A.** 3.8 mM⁻¹ s⁻¹

**Q.** What about the pKGdL [2] of the same molecule?
**A.** 22.5
